Biological target: T1, WT human TRPM3 (Homo sapiens, UniProt Q9HCF6)
T1 construct: expressed in transfected cells; host or cells: HEK293T
T1 sequence (Q9HCF6 1-1325 isoform Q9HCF6-10): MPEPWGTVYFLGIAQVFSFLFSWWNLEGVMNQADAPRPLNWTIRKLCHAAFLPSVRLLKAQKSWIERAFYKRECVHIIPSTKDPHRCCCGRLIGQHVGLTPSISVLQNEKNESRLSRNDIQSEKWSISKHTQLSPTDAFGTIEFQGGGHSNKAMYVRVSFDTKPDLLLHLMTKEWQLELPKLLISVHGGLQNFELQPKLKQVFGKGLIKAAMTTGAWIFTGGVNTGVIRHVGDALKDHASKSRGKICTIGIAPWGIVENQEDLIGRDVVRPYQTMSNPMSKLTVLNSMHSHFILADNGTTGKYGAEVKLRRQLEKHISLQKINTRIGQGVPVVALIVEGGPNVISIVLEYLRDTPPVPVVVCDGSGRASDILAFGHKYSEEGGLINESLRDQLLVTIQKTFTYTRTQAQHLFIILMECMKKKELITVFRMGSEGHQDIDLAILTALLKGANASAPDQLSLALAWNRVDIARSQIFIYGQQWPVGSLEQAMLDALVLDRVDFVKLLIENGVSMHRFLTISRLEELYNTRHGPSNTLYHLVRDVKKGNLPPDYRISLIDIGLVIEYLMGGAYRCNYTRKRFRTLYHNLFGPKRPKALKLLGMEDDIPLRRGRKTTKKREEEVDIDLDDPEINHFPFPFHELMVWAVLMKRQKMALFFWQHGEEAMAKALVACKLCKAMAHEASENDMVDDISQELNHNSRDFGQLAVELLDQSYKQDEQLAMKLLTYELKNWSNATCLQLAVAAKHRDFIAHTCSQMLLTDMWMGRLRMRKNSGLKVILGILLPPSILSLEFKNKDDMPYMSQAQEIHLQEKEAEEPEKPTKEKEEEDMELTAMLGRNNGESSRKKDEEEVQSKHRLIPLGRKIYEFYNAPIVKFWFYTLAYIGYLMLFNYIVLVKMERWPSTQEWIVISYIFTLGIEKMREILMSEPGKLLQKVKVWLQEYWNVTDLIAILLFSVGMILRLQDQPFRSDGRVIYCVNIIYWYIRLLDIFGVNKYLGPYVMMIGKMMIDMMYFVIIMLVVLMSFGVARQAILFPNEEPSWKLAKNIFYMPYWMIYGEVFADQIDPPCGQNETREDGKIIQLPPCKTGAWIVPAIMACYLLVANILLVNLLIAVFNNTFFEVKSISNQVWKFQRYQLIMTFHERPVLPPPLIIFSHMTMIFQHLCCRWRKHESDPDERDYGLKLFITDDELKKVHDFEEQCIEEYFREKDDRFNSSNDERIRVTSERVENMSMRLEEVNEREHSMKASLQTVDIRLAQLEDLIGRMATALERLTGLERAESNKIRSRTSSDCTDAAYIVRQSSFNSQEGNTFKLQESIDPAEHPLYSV
Test: Fura-2-based calcium imaging, HEK293T cells transfected with WT hTRPM3
Type: cell-based
Experimental: HEK293T cells ([Graham et al., 1977]) were cultured as described previously ([Vriens et al., 2007]) and used up in passage number 14. HEK293T cells were tested for the lack of mycoplasma and transiently transfected with 2 µg of DNA using TransIT transfection reagent (Mirus) 36–48 hr before the measurements. In case of co-cultures a ratio of 1:1 between hTRPM3-YFP WT and mutants-YFP DNA was used.
Changes in intracellular calcium concentration were monitored using ratiometric Fura-2-based fluorimetry. Cells were loaded with 2 µM Fura-2-acetoxymethyl ester (Alexis Biochemicals) for 30 min at 37°C. Fluorescence was measured during alternating illumination at 340 and 380 nm using Eclipse Ti (Nikon) fluorescence microscopy system, and absolute calcium concentration was calculated from the ratio of the fluorescence signals at these two wavelengths (R = F340/F380) as [Ca^2+]=Km × (R-Rmin)/(Rmax-R), where Km, Rmin and Rmax were estimated from in vitro calibration experiments with known calcium concentrations. The bath solution contained (in mM) 138 NaCl, 5.4 KCl, 2 CaCl2, 2 MgCl2, 10 glucose, and 10 HEPES, pH 7.4. […] The chemical ligands were dissolved in bath solution from a stock diluted in DMSO.

| Compound | Effect on basal [Ca2+]i (primidone 100 µM, isosakuranetin 50 µM) | PS concentration required to induce a detectable calcium response [µM] |
| --- | --- | --- |
| CCC1(c2ccccc2)C(=O)NCNC1=O [primidone] | reduced [Ca^2+]i | – |
| pregnenolone sulfate [PS] | – | 10 |

From PMC7253177, “Gain of channel function and modified gating properties in TRPM3 mutants causing intellectual disability and epilepsy” (eLife, 2020)
